The values below come from PubChem BioAssay AID1259407 (Chemical Carcinogenesis Research Information System (CCRIS), 2018).

The data set deals with CCRIS mutagenicity, Ames/micronucleus/aberration tests. Nature of the data set: CCRIS mutagenicity studies.
[1] abbreviates: Test System: AMES SALMONELLA TYPHIMURIUM, Strain/Indicator: TA100, Metabolic Activation: NONE, Method: STANDARD PLATE.
Setting [2] is: Test System: AMES SALMONELLA TYPHIMURIUM, Strain/Indicator: TA1535, Metabolic Activation: NONE, Method: STANDARD PLATE.
[3] abbreviates: Test System: AMES SALMONELLA TYPHIMURIUM, Strain/Indicator: TA98, Metabolic Activation: RAT, LIVER, S-9, AROCLOR 1254, Method: STANDARD PLATE.
[4] abbreviates: Test System: AMES SALMONELLA TYPHIMURIUM, Strain/Indicator: TA1535, Metabolic Activation: RAT, LIVER, S-9, AROCLOR 1254, Method: STANDARD PLATE.
Setting [5] is: Test System: AMES SALMONELLA TYPHIMURIUM, Strain/Indicator: TA98, Metabolic Activation: NONE, Method: STANDARD PLATE.
The mark [6] stands for this setting: Test System: AMES SALMONELLA TYPHIMURIUM, Strain/Indicator: TA100, Metabolic Activation: RAT, LIVER, S-9, AROCLOR 1254, Method: STANDARD PLATE.
The mark [7] stands for this setting: Test System: AMES SALMONELLA TYPHIMURIUM, Strain/Indicator: TA98, Metabolic Activation: NONE, Method: PREINCUBATION
Setting [8] is: Test System: AMES SALMONELLA TYPHIMURIUM, Strain/Indicator: TA100, Metabolic Activation: NONE, Method: PREINCUBATION

Molecules are shown by their SMILES. The source made the active and inactive calls. The rule behind the calls is not given here.

Consider `C[C@@H]1O[C@@H]1C`, for which the mutagenic call (Test System: AMES SALMONELLA TYPHIMURIUM, Strain/Indicator: TA100, Metabolic Activation: NONE, Method: FLASK VAPORIZATION) is “active; positive”; the mutagenic call under setting [1] was “active; positive”; the mutagenic call (Test System: AMES SALMONELLA TYPHIMURIUM, Strain/Indicator: TA100, Metabolic Activation: RAT, LIVER, S-9, AROCLOR 1254, Method: FLASK VAPORIZATION) is “active; positive”; the mutagenic call (Test System: AMES SALMONELLA TYPHIMURIUM, Strain/Indicator: TA1535, Metabolic Activation: NONE, Method: FLASK VAPORIZATION) is “active; positive”; the mutagenic call under setting [2] was “active; positive”; the mutagenic call (Test System: AMES SALMONELLA TYPHIMURIUM, Strain/Indicator: TA1535, Metabolic Activation: RAT, LIVER, S-9, AROCLOR 1254, Method: FLASK VAPORIZATION) is “active; positive”.

Regarding `Oc1ccc(-c2ccccc2)cc1`, the mutagenic call is, setting by setting: under setting [3], “active; positive”; under setting [4], “inactive; negative”.

In the case of `Cc1ccc(N=Nc2ccc(N(CCO)CCO)cc2)cc1`, the mutagenic call was “inactive; negative” (Test System: AMES SALMONELLA TYPHIMURIUM, Strain/Indicator: TA98, Metabolic Activation: HAMSTER, LIVER, S-9, AROCLOR 1254, Method: STANDARD PLATE); “inactive; negative” under setting [5]; “inactive; negative” (Test System: AMES SALMONELLA TYPHIMURIUM, Strain/Indicator: TA98, Metabolic Activation: RAT, LIVER, S-9, AROCLOR 1254, Method: PREINCUBATION); “inactive; negative” under setting [3]; “inactive; negative” under setting [1]; “inactive; negative” under setting [6]. Moreover, the mutagenic call by setting is: under setting [2], “inactive; negative”; under setting [4], “inactive; negative”; (Test System: AMES SALMONELLA TYPHIMURIUM, Strain/Indicator: TA1537, Metabolic Activation: NONE, Method: STANDARD PLATE) “inactive; negative”; (Test System: AMES SALMONELLA TYPHIMURIUM, Strain/Indicator: TA1537, Metabolic Activation: RAT, LIVER, S-9, AROCLOR 1254, Method: STANDARD PLATE) “inactive; negative”; (Test System: AMES SALMONELLA TYPHIMURIUM, Strain/Indicator: TA1538, Metabolic Activation: NONE, Method: STANDARD PLATE) “inactive; negative”; (Test System: AMES SALMONELLA TYPHIMURIUM, Strain/Indicator: TA1538, Metabolic Activation: RAT, LIVER, S-9, AROCLOR 1254, Method: STANDARD PLATE) “inactive; negative”.

Consider `CC(=O)Nc1cnc2ccccc2c1`, for which the mutagenic call reads like this: under setting [7], “inactive; negative”; (Test System: AMES SALMONELLA TYPHIMURIUM, Strain/Indicator: TA98, Metabolic Activation: RAT, LIVER, S-9, KANECHLOR 500, Method: PREINCUBATION) “inactive; negative”; under setting [8], “inactive; negative”; (Test System: AMES SALMONELLA TYPHIMURIUM, Strain/Indicator: TA100, Metabolic Activation: RAT, LIVER, S-9, KANECHLOR 500, Method: PREINCUBATION) “inactive; negative”.

Consider `C[C@@H]1[C@H](O)[C@@H](C)/C=C/C=C/C=C/C=C/C=C/C=C/C=C/[C@H](O[C@@H]2O[C@H](C)[C@@H](O)[C@H](N)[C@@H]2O)C[C@@H]2O[C@](O)(C[C@@H](O)C[C@@H](O)[C@H](O)CC[C@@H](O)C[C@@H](O)CC(=O)O[C@H]1C)C[C@H](O)[C@H]2C(=O)O`, for which the mutagenic call is, setting by setting: (End Point: IN VITRO CHROMOSOMAL ABERRATIONS, Test System: CHO-LB CELLS, Metabolic Activation: NONE) “inactive; negative”; (End Point: IN VITRO CHROMOSOMAL ABERRATIONS, Test System: CHO-LB CELLS, Metabolic Activation: RAT, LIVER, S-9, AROCLOR 1254) “inactive; negative”; (Test System: AMES SALMONELLA TYPHIMURIUM, Strain/Indicator: TA97, Metabolic Activation: HAMSTER, LIVER, S-9, AROCLOR 1254 (10 OR 30%), Method: PREINCUBATION) “inactive; negative”; (Test System: AMES SALMONELLA TYPHIMURIUM, Strain/Indicator: TA97, Metabolic Activation: NONE, Method: PREINCUBATION) “inactive; negative”; (Test System: AMES SALMONELLA TYPHIMURIUM, Strain/Indicator: TA97, Metabolic Activation: RAT, LIVER, S-9, AROCLOR 1254 (10 OR 30%), Method: PREINCUBATION) “inactive; negative”; (Test System: AMES SALMONELLA TYPHIMURIUM, Strain/Indicator: TA98, Metabolic Activation: HAMSTER, LIVER, S-9, AROCLOR 1254 (10 OR 30%), Method: PREINCUBATION) “inactive; negative”. The mutagenic call is, setting by setting: under setting [7], “inactive; negative”; (Test System: AMES SALMONELLA TYPHIMURIUM, Strain/Indicator: TA98, Metabolic Activation: RAT, LIVER, S-9, AROCLOR 1254 (10 OR 30%), Method: PREINCUBATION) “inactive; negative”; (Test System: AMES SALMONELLA TYPHIMURIUM, Strain/Indicator: TA100, Metabolic Activation: HAMSTER, LIVER, S-9, AROCLOR 1254 (10 OR 30%), Method: PREINCUBATION) “inactive; negative”; under setting [8], “inactive; negative”; (Test System: AMES SALMONELLA TYPHIMURIUM, Strain/Indicator: TA100, Metabolic Activation: RAT, LIVER, S-9, AROCLOR 1254 (10 OR 30%), Method: PREINCUBATION) “inactive; negative”; (Test System: AMES SALMONELLA TYPHIMURIUM, Strain/Indicator: TA1535, Metabolic Activation: HAMSTER, LIVER, S-9, AROCLOR 1254 (10 OR 30%), Method: PREINCUBATION) “inactive; negative”. The mutagenic call (Test System: AMES SALMONELLA TYPHIMURIUM, Strain/Indicator: TA1535, Metabolic Activation: NONE, Method: PREINCUBATION) was “inactive; negative”; the mutagenic call (Test System: AMES SALMONELLA TYPHIMURIUM, Strain/Indicator: TA1535, Metabolic Activation: RAT, LIVER, S-9, AROCLOR 1254 (10 OR 30%), Method: PREINCUBATION) is “inactive; negative”; the mutagenic call (Test System: AMES SALMONELLA TYPHIMURIUM, Strain/Indicator: TA1537, Metabolic Activation: HAMSTER, LIVER, S-9, AROCLOR 1254 (30%), Method: PREINCUBATION) is “inactive; negative”; the mutagenic call (Test System: AMES SALMONELLA TYPHIMURIUM, Strain/Indicator: TA1537, Metabolic Activation: NONE, Method: PREINCUBATION) was “inactive; negative”; the mutagenic call (Test System: AMES SALMONELLA TYPHIMURIUM, Strain/Indicator: TA1537, Metabolic Activation: RAT, LIVER, S-9, AROCLOR 1254 (30%), Method: PREINCUBATION) was “inactive; negative”.

For `COc1cc2c(c3oc(=O)c4c(c13)[C@@H](O)CC4=O)[C@@H]1C=CO[C@@H]1O2`, the mutagenic call (Test System: AMES SALMONELLA TYPHIMURIUM, Strain/Indicator: TA98, Metabolic Activation: HUMAN, LIVER, S-9, Method: STANDARD PLATE) was “inactive; negative”; the mutagenic call (Test System: AMES SALMONELLA TYPHIMURIUM, Strain/Indicator: TA100, Metabolic Activation: HUMAN, LIVER, S-9, Method: STANDARD PLATE) was “inactive; negative”; the mutagenic call under setting [1] is “active; positive”; the mutagenic call under setting [6] was “active; positive”.

In the case of `O=c1[nH]cc2ccc3cccc4ccc1c2c34`, the mutagenic call is “inactive; negative” under setting [5], “inactive; negative” under setting [3], “inactive; negative” under setting [1] and “inactive; negative” under setting [6].

For the compound `CCCNC(=O)C=Cc1ccc([N+](=O)[O-])o1`, the mutagenic call under setting [7] is “active; positive”.
